Measured values published in patent US8691753B2 (priority 2009, dated 2014).
Where two headings read alike, the source gives them in different places.

Key:
Format in all cases: biochemical
[1] = target: MMP-2h (Homo sapiens (Human), UniProt P08253); assay: Inhibition constant (Ki) on MMP-2h; details: human MMP-2
Method in brief: (§1)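 Compounds are evaluated on human MMPs, and Ki is derived as set out in an earlier publication.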

[2] = target: MMP-9h (Homo sapiens (Human), UniProt P14780); assay: Inhibition constant (Ki) on MMP-9h; details: human MMP-9
Method in brief: as §1

[3] = target: MMP-10h (Homo sapiens (Human), UniProt P09238); assay: Inhibition constant (Ki) on MMP-10h; details: human MMP-10
[4] = target: MMP-12h (Homo sapiens (Human), UniProt P39900); assay: Inhibition constant (Ki) on MMP-12h; details: human MMP-12
[5] = target: MMP-13h (Homo sapiens (Human), UniProt P45452); assay: Inhibition constant (Ki) on MMP-13h; details: human MMP-13
Method in brief: as §1

[6] = target: MMP-14h (Homo sapiens (Human), UniProt P50281); assay: Inhibition constant (Ki) on MMP-14h; details: human MMP-14
Method in brief: as §1

[7] = target: MMP-8h (Homo sapiens (Human), UniProt P22894); assay: Inhibition constant (Ki) on MMP-8h; details: human MMP-8
[8] = target: MMP-3h (Homo sapiens (Human), UniProt P08254); assay: Inhibition constant (Ki) on MMP-3h; details: human MMP-3
Method in brief: as §1

Chain of MMP-3h (P08254 100-477): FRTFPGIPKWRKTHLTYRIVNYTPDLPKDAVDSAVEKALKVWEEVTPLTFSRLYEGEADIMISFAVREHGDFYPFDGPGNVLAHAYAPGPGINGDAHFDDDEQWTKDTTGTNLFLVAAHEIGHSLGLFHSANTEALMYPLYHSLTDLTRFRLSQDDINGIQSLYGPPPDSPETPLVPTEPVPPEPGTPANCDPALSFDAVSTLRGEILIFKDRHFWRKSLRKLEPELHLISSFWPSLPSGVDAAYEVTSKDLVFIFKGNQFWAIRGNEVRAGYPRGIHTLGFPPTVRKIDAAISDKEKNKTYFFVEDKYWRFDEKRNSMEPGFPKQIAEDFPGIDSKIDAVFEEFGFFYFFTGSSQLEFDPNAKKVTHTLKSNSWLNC
Chain of MMP-9h (P14780 94-707): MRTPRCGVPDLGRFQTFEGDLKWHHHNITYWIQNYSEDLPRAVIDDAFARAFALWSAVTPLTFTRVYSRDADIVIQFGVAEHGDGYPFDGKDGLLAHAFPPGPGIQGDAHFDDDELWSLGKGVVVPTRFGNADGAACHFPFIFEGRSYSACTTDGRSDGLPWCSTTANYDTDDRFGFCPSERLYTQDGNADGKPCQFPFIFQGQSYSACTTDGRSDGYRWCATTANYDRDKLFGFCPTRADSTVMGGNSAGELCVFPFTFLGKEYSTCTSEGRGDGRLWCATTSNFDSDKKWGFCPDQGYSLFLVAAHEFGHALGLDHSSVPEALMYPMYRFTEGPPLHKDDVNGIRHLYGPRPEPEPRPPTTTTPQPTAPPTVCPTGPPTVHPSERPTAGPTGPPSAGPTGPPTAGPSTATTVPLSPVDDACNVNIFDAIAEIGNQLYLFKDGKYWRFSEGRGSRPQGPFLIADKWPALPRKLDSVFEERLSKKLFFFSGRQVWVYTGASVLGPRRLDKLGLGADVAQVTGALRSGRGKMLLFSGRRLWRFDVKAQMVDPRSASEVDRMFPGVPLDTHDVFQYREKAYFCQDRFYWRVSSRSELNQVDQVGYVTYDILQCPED
Chain of MMP-8h (P22894 101-467): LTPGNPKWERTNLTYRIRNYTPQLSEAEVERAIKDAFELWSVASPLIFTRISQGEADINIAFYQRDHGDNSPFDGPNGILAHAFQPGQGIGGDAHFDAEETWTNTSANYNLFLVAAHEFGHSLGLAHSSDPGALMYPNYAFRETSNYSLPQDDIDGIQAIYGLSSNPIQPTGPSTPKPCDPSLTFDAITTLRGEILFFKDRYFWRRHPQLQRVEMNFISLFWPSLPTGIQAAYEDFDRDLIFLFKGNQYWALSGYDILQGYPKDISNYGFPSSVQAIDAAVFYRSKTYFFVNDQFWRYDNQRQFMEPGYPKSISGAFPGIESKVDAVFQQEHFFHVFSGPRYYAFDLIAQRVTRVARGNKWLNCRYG
Chain of MMP-12h (P39900 106-470): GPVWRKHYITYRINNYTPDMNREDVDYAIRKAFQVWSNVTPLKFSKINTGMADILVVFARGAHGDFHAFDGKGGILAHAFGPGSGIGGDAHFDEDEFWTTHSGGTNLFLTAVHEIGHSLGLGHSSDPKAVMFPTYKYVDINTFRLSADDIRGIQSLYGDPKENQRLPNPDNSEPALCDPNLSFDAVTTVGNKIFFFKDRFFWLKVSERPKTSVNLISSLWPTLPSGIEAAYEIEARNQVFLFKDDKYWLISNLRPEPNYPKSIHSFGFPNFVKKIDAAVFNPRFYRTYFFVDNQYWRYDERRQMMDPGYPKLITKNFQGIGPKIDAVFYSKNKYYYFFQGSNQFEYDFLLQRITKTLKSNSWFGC
Chain of MMP-10h (P09238 99-476): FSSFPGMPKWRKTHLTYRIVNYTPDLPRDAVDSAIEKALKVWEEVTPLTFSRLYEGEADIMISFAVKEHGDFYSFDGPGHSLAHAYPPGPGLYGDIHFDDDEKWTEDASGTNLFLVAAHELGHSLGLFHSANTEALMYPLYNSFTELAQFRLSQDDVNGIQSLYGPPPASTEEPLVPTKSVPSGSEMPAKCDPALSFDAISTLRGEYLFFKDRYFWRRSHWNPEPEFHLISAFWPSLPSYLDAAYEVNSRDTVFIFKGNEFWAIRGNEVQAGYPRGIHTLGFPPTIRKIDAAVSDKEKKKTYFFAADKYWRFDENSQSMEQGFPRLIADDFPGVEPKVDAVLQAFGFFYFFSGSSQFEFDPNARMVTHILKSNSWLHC
Chain of MMP-2h (P08253 110-660): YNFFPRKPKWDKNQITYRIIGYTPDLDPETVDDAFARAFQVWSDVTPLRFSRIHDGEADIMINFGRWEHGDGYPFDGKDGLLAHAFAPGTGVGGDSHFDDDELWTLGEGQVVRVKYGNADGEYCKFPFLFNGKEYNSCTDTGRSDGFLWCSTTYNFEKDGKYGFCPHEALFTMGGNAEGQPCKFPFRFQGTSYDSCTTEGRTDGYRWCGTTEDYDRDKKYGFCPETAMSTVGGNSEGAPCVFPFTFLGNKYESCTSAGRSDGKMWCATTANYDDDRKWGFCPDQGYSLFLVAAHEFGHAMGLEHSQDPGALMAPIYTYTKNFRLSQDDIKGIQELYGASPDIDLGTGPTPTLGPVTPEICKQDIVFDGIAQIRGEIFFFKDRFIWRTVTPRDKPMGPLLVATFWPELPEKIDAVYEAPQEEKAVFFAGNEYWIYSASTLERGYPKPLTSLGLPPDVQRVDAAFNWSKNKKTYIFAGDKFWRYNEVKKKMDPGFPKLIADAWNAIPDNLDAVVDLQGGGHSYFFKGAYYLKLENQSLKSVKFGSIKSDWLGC

Row | SMILES | Ki ([1]; read-out: Ki MMP-2h) [nM] | Ki ([2]; read-out: Ki MMP-9h) [nM] | Ki ([3]; read-out: Ki MMP-10h) [nM] | Ki ([4]; read-out: Ki MMP-12h) [nM] | Ki ([5]; read-out: Ki MMP-13h) [nM] | Ki ([6]; read-out: Ki MMP-14h) [nM] | Ki ([7]; read-out: Ki MMP-8h) [nM] | Ki ([8]; read-out: Ki MMP-3h) [nM] | Ki [1] [nM] | Ki [2] [nM] | Ki [3] [nM] | Ki [4] [nM] | Ki [5] [nM] | Ki [6] [nM] | Ki [7] [nM] | Ki [8] [nM]
1 | O=C(O)CC[C@H](NC(=O)CCc1ccc(-c2ccccc2)cc1)C(=O)N1CCC[C@@H](CC(=O)O)C1 [Compound 51, (S)-4-(3-(biphenyl-4-yl)propanamido)-5-((S)-3-(carboxymethyl)piperidin-1-yl)-5-oxopentanoic acid] | > 1000 | > 1000 | > 10000 | 259 | > 1000 | > 5000 | 929 | > 10000 | – | – | – | – | – | – | – | –
2 | C[C@H](NC(=O)[C@H](CCC(=O)O)NC(=O)CCc1cc(-c2ccc(-c3ccccc3)cc2)no1)C(N)=O [Compound 23, (S)-5-((S)-1-amino-1-oxopropan-2-ylamino)-4-(3-(3-(biphenyl-4-yl)isoxazol-5-yl)propanamido)-5-oxopentanoic acid] | 78 | > 1000 | 276 | 11.2 | 80 | > 1000 | 351 | 460 | – | – | – | – | – | – | – | –
3 | NC(=O)[C@H](CCC(=O)O)NC(=O)[C@H](CCC(=O)O)NC(=O)CCc1ccc(I)cc1 [Compound 31, (S)-5-amino-4-((S)-4-carboxy-2-(3-(4-iodophenyl)propanamido)butanamido)-5-oxopentanoic acid] | > 1000 | > 1000 | > 1000 | 155 | > 1000 | > 1000 | 839 | > 5000 | – | – | – | – | – | – | – | –
4 | NC(=O)[C@H](CCC(=O)O)NC(=O)CCc1cc(-c2ccc(-c3cccc(Cl)c3)cc2)no1 [Compound 4, (S)-5-amino-4-(3-(3-(3′-chlorobiphenyl-4-yl)isoxazol-5-yl)propanamido)-5-oxopentanoic acid] | 90 | 120 | 122 | 11.8 | 46 | > 1000 | 119 | 118 | – | – | – | – | – | – | – | –
5 | NC(=O)[C@H](CCC(=O)O)NC(=O)[C@H](CCC(=O)O)NC(=O)CCc1ccc(-c2cc(Cl)cc(Cl)c2)cc1 [Compound 58, (S)-5-amino-4-((S)-4-carboxy-2-(3-(3′,5′-dichlorobiphenyl-4-yl)propanamido)butanamido)-5-oxopentanoic acid] | > 1000 | 391 | > 1000 | 56 | > 1000 | > 1000 | > 5000 | > 1000 | – | – | – | – | – | – | – | –
6 | NC(=O)[C@H](CCC(=O)O)NC(=O)[C@H](CCC(=O)O)NC(=O)CCc1ccc(-c2csnn2)cc1 [Compound 35, (S)-4-(3-(4-(1,2,3-thiadiazol-4-yl)phenyl)propanamido)-5-((S)-1-amino-4-carboxy-1-oxobutan-2-ylamino)-5-oxopentanoic acid] | – | – | – | – | – | – | – | – | 442 | 199 | 679 | 158 | 212 | 438 | 231 | 281
7 | CC(C)C[C@H](NC(=O)[C@H](CCC(=O)O)NC(=O)CCc1ccc(-c2cccs2)cc1)C(N)=O [Compound 88, (S)-5-((S)-1-amino-4-methyl-1-oxopentan-2-ylamino)-5-oxo-4-(3-(4-(thiophen-2-yl)phenyl)propanamido)pentanoic acid] | 298 | > 1000 | > 1000 | 32 | > 1000 | > 1000 | 73 | > 10000 | – | – | – | – | – | – | – | –
